Measured values taken from PMC6112376, “Comprehensive Analyses and Prioritization of Tox21 10K Chemicals Affecting Mitochondrial Function by in-Depth Mechanistic Studies” (Environmental Health Perspectives, 2018).
Structures can show the parent of a compound that is named as a salt. Where two headings read alike, the source gives them in different places.

What was measured:
[1] = system: HepG2 cells; conditions: for IC50: read-out: MMP assays IC50 (µM) HepG2
[2] = system: rat primary hepatocytes
[3] = system: HepG2 cells; conditions: cited from earlier work
[4] = system: rat primary hepatocytes; assay: MMP assay in rat primary hepatocytes; conditions: for IC50: read-out: MMP assays IC50 (µM) Rat Hepatocytes
[5] = read-out: MMP assays IC50 (µM) qHTS-HepG2
[6] = read-out: MMP assays IC50 (µM), qHTS-HepG2

| Molecule | MMP assays efficacy (%) HepG2 [1] | IC50 [1] [µM] | MMP assays efficacy (%) Rat Hepatocytes [2] | MMP assays efficacy (%) qHTS-HepG2 [3] | IC50 [3, 5] [µM] | IC50 [4] [µM] | IC50 [3, 6] [µM] | MMP assays IC50 (µM) Rat Hepatocytes [4] | MMP assays IC50 (µM) HepG2 [1] | MMP assays IC50 (µM) qHTS-HepG2 [3] | IC50 ([4]; Rattus norvegicus, Hepatocyte) [µM] |
| --- | --- | --- | --- | --- | --- | --- | --- | --- | --- | --- | --- |
| Dinocap | -100% | 0.63 | -93±7% | -94±10% | 0.34 ± 0.3 | 4.1 ± 2.16 | – | – | – | – | – |
| Cl.Nc1ccc(Nc2ccccc2)cc1 | -54% | 28.2 | inactive | -69±28% | – | – | 5.82 ± 6.96 | inactive | – | – | – |
| C[C@@H]1C/C=C/C=C/C=C/C=C/[C@H](O[C@@H]2O[C@H](C)[C@@H](O)[C@H](N)[C@@H]2O)C[C@@H]2O[C@](O)(C[C@@H](O)C[C@H]3O[C@@H]3/C=C/C(=O)O1)C[C@H](O)[C@H]2C(=O)O [Natamycin] | inactive | – | inactive | inactive | – | – | – | inactive | inactive | inactive | – |
| CCCC[P+](CCCC)(CCCC)CCCC.[Cl-] [Tetrabutylphosphonium chloride] | inactive | – | -108+36% | inactive | – | 15.3 ± 5 | – | – | inactive | inactive | – |
| CN(C)c1ccc2nc3ccc(=[N+](C)C)cc-3sc2c1 [Methylene blue trihydrate] | -69% | 4.82 | -93±3% | -67±11% | – | – | 1.31 ± 0.79 | – | – | – | 7.29 ± 7.49 |
| CCN1CCC2(CC1)COc1cc3c(cc12)N(C(=O)c1ccc(-c2ccc(-c4nnc(C)o4)cc2C)cc1)CC3.Cl | -111% | 19.9 | -109±26% | -58±10% | 6.09 ± 2.54 | 40.9 ± 16 | – | – | – | – | – |
| Oc1cc2ccccc2c2ccccc12 [Compound 9-Phenanthrol] | -101% | 3.55 | -94±31% | -101±8% | 1.22 ± 0.56 | 47.3 ± 10.7 | – | – | – | – | – |
| CC(C)C[C@H]1C(=O)N2CCC[C@H]2[C@]2(O)O[C@](NC(=O)[C@@H]3C=C4c5cccc6[nH]c(Br)c(c56)C[C@H]4N(C)C3)(C(C)C)C(=O)N12 [Bromocriptine mesylate] | -113% | 13.5 | -74±34% | -111±8% | 11.2 ± 2.78 | 12.6 ± 1.6 | – | – | – | – | – |
| Tributyltin chloride | -96% | 0.89 | -136±58% | -97±11% | – | 8.95 ± 1.03 | 0.11 ± 0.02 | – | – | – | – |
| CCCCCCCCCCCCCC[P+](CCCC)(CCCC)CCCC.[Cl-] [Tributyltetradecylphosphonium chloride] | – | 1.12 | -93±15% | -82±17% | – | 7.66 ± 0.5 | 0.71 ± 0.15 | – | – | – | – |
| O=[N+]([O-])c1ccc2nc[nH]c2c1 [Compound 6-Nitrobenzimidazole] | inactive | – | inactive | -53±6% | 36.4 ± 10.8 | – | – | inactive | inactive | – | – |
| Nc1ccc(-c2ccc(N)c(N)c2)cc1N [3,3'-Diaminobenzidine] | -55% | 4.47 | -62±22% | -115±16% | 13.7 ± 14.9 | 30.7 ± 28.3 | – | – | – | – | – |
| CCCCCCCCCCCCCC[n+]1ccc(C)cc1.[Cl-] [Miripirium chloride] | -121% | – | -106±27% | -86±9% | – | 19.5 ± 2.25 | 16.4 ± 4.01 | – | – | – | – |
| O=C1NCN(c2ccccc2)C12CCN(CCCOc1ccc(F)cc1)CC2 [AMI-193] | -75% | 7.74 | -37±21% | -73±11% | 5.82 ± 3.05 | 26 ± 12.2 | – | – | – | – | – |
| CC(C)(C)c1ccc(CN2CCN(C(c3ccccc3)c3ccc(Cl)cc3)CC2)cc1.Cl.Cl (stereo not shown) [Buclizine dihydrochloride] | inactive | – | inactive | -52±10% | 32.2 ± 2.1 | – | – | inactive | inactive | – | – |
| CC1=C(/C=C/C(C)=C/C=C/C(C)=C/C(=O)Nc2ccc(O)cc2)C(C)(C)CCC1 | -92% | 4.89 | inactive | -100±0% | 3.4 ± 0.76 | – | – | inactive | – | – | – |
| O=C(Nc1cccc([N+](=O)[O-])c1)c1cc2ccccc2cc1O | -93% | 0.28 | -89±5% | -91±2% | 0.24 ± 0.09 | 1.6 ± 0.26 | – | – | – | – | – |
| C[C@]12CC[C@@H]3c4ccc(O)cc4CC[C@H]3[C@@H]1CC[C@@H]2OP(=O)(O)O [Estradiol phosphate] | inactive | – | inactive | inactive | – | – | – | inactive | inactive | inactive | – |
| Cc1ccc(S(=O)(=O)NC2CCCCC2)cc1 [N-Cyclohexyl-4-methyl benzenesulfonamide] | inactive | – | -46±15% | -83±10% | – | 38.1 ± 25.6 | 36.1 ± 21 | – | inactive | – | – |
| ClC1C(Cl)C(Cl)C(Cl)C(Cl)C1Cl (stereo not drawn) [alpha-1,2,3,4,5,6-Hexachlorocyclohexane] | inactive | – | -54±20% | -54±7% | 49 ± 6.35 | 39.8 | – | – | inactive | – | – |
| CCC[CH2][Sn]([CH2]CCC)([CH2]CCC)[CH2]CCC [Tetrabutyltin] | -98% | 11.2 | inactive | -100±1% | – | – | 5.66 ± 1.03 | inactive | – | – | – |
| CCO[Si](CC(C)C)(OCC)OCC [Triethoxy(2-methylpropyl)silane] | -83% | 35.5 | inactive | -66±5% | – | – | 28.9 ± 6.98 | inactive | – | – | – |
| CCCCCCCCCCn1cc[n+](CCCCCCCCCC)c1C.[Cl-] [1,3-Didecyl-2-methylimidazolium chloride] | -104% | 3.16 | -110±29% | -83±13% | 3.86 ± 4.19 | 26.2 ± 3.35 | – | – | – | – | – |
| CC(C)(c1ccccc1)c1ccc(O)c(C(C)(C)c2ccccc2)c1 [2,4-Bis(1-methyl-1-phenylethyl)phenol] | -90% | 2.82 | -78±5% | -108±7% | 3.49 ± 1.51 | 43.9 ± 17.4 | – | – | – | – | – |
| CC#C[C@]1(O)CC[C@H]2[C@@H]3CCC4=CC(=O)CCC4=C3[C@@H](c3ccc(N(C)C)cc3)C[C@@]21C | inactive | – | inactive | -97±21% | – | – | 16.1 ± 32.5 | inactive | inactive | – | – |
